Experimental data: patent US12551471B2, “ABT-751 and ionizing radiation” (Stichting Het Nederlands Kanker Instituut-Antoni van …, priority 2020, dated 2026)
Entries after “also recorded” stand apart in the source; their conditions may differ.

Columns and labels:
[1] = tested on: U87 human brain cancer cell line; experiment: Radiosensitization efficacy study, orthotopic U87 model; assay type: in vivo, mice
From the text: This U87 model is more intrinsically radiosensitive and was therefore irradiated with fractions of 1 Gy instead of 4 Gy as used above.

[2] = tested on: GSC457 brain cancer cells; experiment: Mitotic enrichment (p-H3 immunohistochemistry) in orthotopic GSC457 brain tumors; assay type: in vivo, mice
Protocol: To study the pharmacokinetic-pharmacodynamic relationship of ABT-751 in vivo, we made use of a genetically engineered mouse model-derived brain cancer model that was previously established in our lab. We implanted these GSC457 brain cancer cells in the brains of recipient mice and followed up their growth using bioluminescence imaging. When full-blown tumors had established, we treated tumor-bearing mice with different doses of ABT-751 and collected their brains 6 hours or 24 hours after administration. […] We next aimed to confirm whether repeated induction of mitotic enrichment was feasible and efficient in vivo. Using the same murine brain cancer model as described above, we quantified the number of mitotic cells in tumors 6 hours after administration of one dose of 50 mg/kg of ABT-751 and compared the levels to those in tumors 6 hours after receiving a second administration of 50 mg/kg of ABT-751 either 24 or 48 hours after the first administration. We again confirmed that mitotic enrichment can efficiently be induced by ABT-751 in brain cancer in vivo (FIG. 8). […] In the clinic, the standard-of-care for glioblastoma—the most common and aggressive adult brain cancer—involves ionizing radiation and concomitant alkylating chemotherapy using temozolomide. Therefore, we next confirmed that induction of mitotic enrichment in vivo using ABT-751 is compatible with chemo-radiotherapy.

[3] = tested on: tumor cells from various origins; experiment: Clonogenic assays with ionizing radiation (radiosensitization); assay type: cell-based
Protocol: Using clonogenic assays, we confirmed that induction of mitotic enrichment by ABT-751 radiosensitizes tumor cells from various origins. To achieve induction of mitotic enrichment, we exposed cells to 1 μM of ABT-751 for 6 hours, at which time we exposed cells to a dose range of ionizing radiation (FIG. 4A). Directly after irradiation, we washed ABT-751 away and waited for 18 hours before the process was repeated. In total, the process of induction of mitotic enrichment and subsequent irradiation was repeated 4 times to resemble a clinical hyperfractionation schedule. After the last fraction, cells were left to grow out into viable colonies and clonogenic potential was quantified. […] In the first set-up, we irradiated cells prior to exposure to ABT-751 (FIG. 5A). In the second approach, we irradiated cells prematurely after only 1 hour of exposure to ABT-751 while maintaining the total exposure time of ABT-751 at 6 hours (FIG. 5B).

[4] = tested on: various cancer cell lines; experiment: Cell survival assay; assay type: cell-based; details: 1 μM ABT-751, up to 10 hours of exposure
From the text: Importantly, induction of mitotic enrichment could be achieved without inducing cytotoxicity.

[5] = tested on: GSC457 tumors; experiment: Radiosensitization efficacy study, orthotopic GSC457 tumors; assay type: in vivo, mice; details: 4 weeks
Protocol: The first model is described above and was also used to study the […] relationship in FIGS. 7-9. Mice bearing these GSC457 tumors were stratified between 5 treatment arms: • 1. Control treatment, • 2. 50 mg/kg daily ABT-751 for 4 days/week for 4 consecutive weeks • 3. 4 Gy of ionizing radiotherapy (RT) for 4 days/week for 4 consecutive weeks • 4. ABT-751 given 6 hours prior to RT for 4 days/week for 4 consecutive weeks • 5. RT administered prior to ABT-751 for 4 days/week for 4 consecutive weeks
(§1) The growth of these tumors could be followed up using bioluminescence imaging.

[6] = tested on: GBM8 tumors; experiment: Radiosensitization efficacy study, orthotopic GBM8 model; assay type: in vivo, mice
Protocol: Mice bearing these GBM8 tumors were stratified between 5 treatment arms: • 1. Control treatment, • 2. 100 mg/kg daily ABT-751 for 4 days/week for 6 consecutive weeks • 3. 4 […] Gy of ionizing radiotherapy (RT) for 4 days/week for 6 consecutive weeks • 4. ABT-751 given 6 hours prior to RT for 4 days/week for 6 consecutive weeks • 5. RT administered prior to ABT-751 for 4 days/week for 6 consecutive weeks
as §1

[7] = Animal weights throughout efficacy studies; assay type: in vivo; details: mice bearing orthotopic GSC457, U87 or GBM8 tumors
From the text: Finally, to investigate whether the mitotic enrichment strategy using ABT-751 induced toxicity in healthy tissues we studied several parameters.

[8] = tested on: GSC457 tumors and healthy surrounding brain tissue; experiment: Immunohistochemistry for DNA damage and apoptosis markers, on-treatment samples, orthotopic GSC457 tumors; assay type: in vivo, mice; details: ABT-751 prior to radiotherapy
[9] = Plasma and brain concentration after oral administration (LC-MS/MS); assay type: in vivo; details: mice, oral 50 mg/kg
Protocol: In order to facilitate the in vivo translation of the radiosensitization approach, we first established the dose level that achieved clinically relevant plasma concentrations in mice. Using a validate LC-MS/MS method, we measured the plasma concentration—time curve in mice following oral administration of 50 mg/kg ABT-751 in formulation containing DMSO:Cremophor EL:H2O (1:1:8).

[10] = tested on: cancer cell lines of various origins (brain, colorectal, prostate, head & neck and cervical cancer); experiment: Flow cytometric cell cycle analysis (propidium iodide and phospho-histone H3 staining); assay type: cell-based
Protocol: We first studied whether ABT-751 increases the mitotic population of cancer cell lines (FIG. 1). Several lines of various origins—brain, colorectal, prostate, head & neck and cervical cancer—were exposed to a dose range of ABT-751 and incubated for 6 hours, after which the cell cycle was analyzed by flow cytometry. […] This analysis confirmed that ABT-751 dose-dependently increases the mitotic population of cancer cell lines at the expense of the relatively radio-resistant G1 population. […] This shift in cell cycle distribution will hereafter be referred to as induction of mitotic enrichment. […] Importantly, the G2 phase of the cell cycle is unaffected. […] In the first set-up, we irradiated cells prior to exposure to ABT-751 (FIG. 5A). In the second approach, we irradiated cells prematurely after only 1 hour of exposure to ABT-751 while maintaining the total exposure time of ABT-751 at 6 hours (FIG. 5B).

[11] = cells irradiated prior to exposure to ABT-751
[12] = ABT-751 6 hours prior to RT, versus radiotherapy
[13] = ABT-751 alone, 100 mg/kg daily, 4 days/week, 6 weeks
[14] = healthy surrounding brain tissue
[15] = dose range of ABT-751, incubated for 6 hours
[16] = two brain cancer cell lines, 1 μM for up to 8 hours, washed away, followed until 48 hours

## COc1ccc(S(=O)(=O)Nc2cccnc2Nc2ccc(O)cc2)cc1 [ABT-751, N-[2-(4-hydroxyanilino)-3-pyridinyl]-4-methoxybenzenesulfonamide]
[1]; ABT-751 6 hours prior to RT, fractions of 1 Gy
  survival benefit: doubled the survival benefit that was achieved by RT alone
[1]; ABT-751 administered after RT
  survival benefit: did not achieve a survival benefit
[2]; all doses, 24 hours after administration
  mitotic population: reverted to baseline levels
[2]; different doses, brains collected 6 hours after administration
  mitotic enrichment in brain tumors (p-H3 staining): dose-dependently induced mitotic enrichment in brain tumors in vivo
[2]; given concomitantly with chemo-radiotherapy involving temozolomide
  mitotic enrichment: can induce mitotic enrichment
[2]; given concomitantly with radiotherapy alone
  mitotic enrichment: can induce mitotic enrichment
[2]; p-H3 staining, GSC457 tumors
  doses achieving the most clear increases in mitotic enrichment: ≥ 50 mg/kg
[2]; second 50 mg/kg dose 24 or 48 hours after the first, 6 hours after administration
  repeated induction of mitotic enrichment: feasible without loss of efficiency when a waiting period of 24 hours or longer is observed between subsequent doses
[3]; 1 μM ABT-751 for 6 hours before ionizing radiation, repeated 4 times
  clonogenic potential (radiosensitization): radiosensitizes cancer cells of various origins
[3]; cells irradiated after only 1 hour of exposure, total exposure 6 hours
  clonogenic potential (radiosensitization): In neither of the sequences radiosensitizing effects of ABT-751 were observed
[3]; [11]
  clonogenic potential (radiosensitization): In neither of the sequences radiosensitizing effects of ABT-751 were observed
[4]
  viability (cytotoxicity): No loss of viability was observed up to 10 hours of exposure
[5]; 50 mg/kg ABT-751 6 hours prior to 4 Gy RT, 4 days/week
  effect of RT on tumor growth and mouse survival: could be enhanced by given ABT-751 6 hours prior to every fraction of radiotherapy
[5]; RT administered prior to ABT-751, 4 days/week
  radiosensitizing effect: a similar radiosensitizing effect could not be observed
[6]; [12]
  survival: extended survival
  tumor growth: further slowed down tumor growth
[6]; ABT-751 administered after radiotherapy
  efficacy (tumor growth, survival): Increased efficacy could not be observed
[6]; [13]
  survival: did not affect
  tumor growth: did not affect tumor growth
[7]
  weight of mice: no treatment-related weight loss
[8]; [14]
  DNA damage (yH2A.X): did not increase DNA damage (yH2A.X)
  apoptosis (cleaved-Caspase 3): did not increase
[8]; in the tumor, compared to radiotherapy alone
  apoptosis: did strongly increase apoptosis specifically in the tumor compared to radiotherapy alone
[9]; 8 hours after administration, 50 mg/kg
  concentration in the brain: still in the range of the concentration that is sufficient to induce mitotic enrichment in vitro; also recorded: supersede the concentration required to achieve mitotic enrichment in vitro for up to 8 hours
[9]; DMSO:Cremophor EL:H2O (1:1:8)
  plasma concentration: in the range of those achieved in patients at a clinically safe dose levels for up to 8 hours
[10]; [11]
  mitotic enrichment: could not induce mitotic enrichment when cells were irradiated prior to exposure
[10]; [15]
  G1 cells (DNA 2N, pHH3-): at the expense of G1 cells
  S phase cells (DNA 2N-4N, pHH3-): stay unaffected
  amount of G2 cells (DNA 4N, pHH3-): appears to increase slightly
  percentage of mitotic cells (DNA 4N, pHH3+): dose-dependently increases the percentage of mitotic cells
[10]; [16]
  G2 phase of the cell cycle: unaffected
  mitotic population over time and after wash-out (reversibility): induces a time-dependent increase of the mitotic population that reverts back to pre-exposure levels after the drug is removed
[10]; within 6 hours, all cell lines tested
  concentration at which maximum achievable mitotic enrichment was achieved: 1 µM
